Patent US5206220A (Research Corporation Technologies, Inc., priority 1991, dated 1993)
In brackets after ≈: the same amount, converted by molar mass. Several values for one entry are separate records, joined by “and”; a condition that tells them apart may be missing. Equal entries are not always repeated. Where two headings read alike, the source gives them in different places. Values belong to the compound of their own block, whether it stands above or below them. Peptide text beside a SMILES is read from it.

Legend:
[1] = system: cells; conditions: cited from earlier work
[2] = storage in aqueous solution, diketopiperazine formation; cited from earlier work
[3] = rats, after 24 h, cited from earlier work
[4] = cited from earlier work
[5] = cited from earlier work; remark: listed apart in the source
[6] = rats, 0.5 mmol/kg; same value at longer times; cited from earlier work
[7] = administered for TPN; cited from earlier work
[8] = cited from earlier work; remark: listed apart in the source
[9] = Clearance of γ-GluGln from plasma, release of plasma glutamine; type: in vivo, mice; conditions: for Glutamine Concentration (plasma), individual mice / Glutamine Concentration (plasma), Mean + Standard Error: 29 μmoles γ-GluGln i.v.; for Glutamine Concentration (plasma), Mean + Standard Error: N = 6
Method: (§1) Sci. 18:233-236] or accomplished by standard amino acid analysis techniques.
Mice were injected with 29 μmoles of γ-GluGln via the external jugular vein. Control animals were injected with an equal volume of saline. Blood was sampled at 10 min. and at 60 min after injection.

[10] = γ-GluGln stability in Aminosyn-PF 10%; type: physicochemical; conditions: sterile, room temperature, one month, 4.5 and 9 months
Method: as §1
To determine the stability of γ-GluGln under typical storage conditions, γ-GluGln was added to Aminosyn-PF 10% under sterile conditions and left at room temperature.

[11] = Clearance of γ-GluTyr from plasma after i.v. injection; type: in vivo, mice
Method: Injections of 20 μl of 140 mM γ-GluTyr (2.8 μmol) were made in the external jugular vein of 30-40 g mice. The amount of γ-GluTyr was measured in the plasma at 10 min and 60 min post-injection in each animal.

[12] = target: T1, bovine kidney γ-GTase (Sigma Type II) (Bos taurus, UniProt G3N2D8); experiment: In vitro release of tyrosine from γ-GluTyr by γ-glutamyl transpeptidase; type: biochemical; conditions: γ-GluTyr in Aminosyn-PF 10%, pH 7.4, monitored by HPLC
T1 construct: the solution treated with bovine kidney γ-GTase (Sigma Type II) at pH 7.4; purchased Sigma Type II; host or cells: bovine kidney (tissue-derived)
T1 sequence (G3N2D8 1-379 limits assumed): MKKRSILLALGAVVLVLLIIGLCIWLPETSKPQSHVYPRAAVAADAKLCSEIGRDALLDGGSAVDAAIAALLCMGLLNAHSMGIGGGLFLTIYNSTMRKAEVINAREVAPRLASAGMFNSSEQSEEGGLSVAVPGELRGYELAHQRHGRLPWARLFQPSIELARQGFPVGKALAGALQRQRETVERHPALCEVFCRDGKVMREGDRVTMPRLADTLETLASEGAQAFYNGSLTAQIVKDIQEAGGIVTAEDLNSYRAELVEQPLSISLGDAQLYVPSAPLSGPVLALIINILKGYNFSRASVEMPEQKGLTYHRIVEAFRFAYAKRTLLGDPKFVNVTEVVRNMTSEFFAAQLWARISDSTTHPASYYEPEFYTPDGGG
T1 sequence (G3N2D8 380-568 limits assumed): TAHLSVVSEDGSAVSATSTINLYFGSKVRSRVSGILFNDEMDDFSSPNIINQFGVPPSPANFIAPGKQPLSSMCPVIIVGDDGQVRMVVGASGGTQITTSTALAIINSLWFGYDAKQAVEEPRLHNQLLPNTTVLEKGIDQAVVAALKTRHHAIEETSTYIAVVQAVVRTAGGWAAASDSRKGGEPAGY
Method: The most likely route for metabolic degradation of γ-GluTyr involves the enzyme, γ-glutamyl transpeptidase (γ-GTase), a widely distributed enzyme in mammalian tissues. In an in vitro test of this hypothesis, γ-GluTyr was added to Aminosyn-PF 10% and the solution treated with bovine kidney γ-GTase (Sigma Type II) at pH 7.4.

[13] = Distribution of γ-GluTyr in urine and plasma; type: in vivo, mice
Method: Urine was collected from mice injected with γ-GluTyr to determine whether or not the peptide was excreted into the urine. Mice were anesthetized with pentobarbital and then injected with 20 μl 140 mM γ-GluTyr (2.8 μmol). No urine was voided during the 60-min experiment, during which time the mice remained anesthetized. At the end of the experiment, the urinary bladders were tied off, removed and blood was collected from the heart for analysis. At the end of 60 min, a maximum of 0.13% of the injected γ-GluTyr was excreted in the urine whereas the plasma contained 12-25 μM γ-GluTyr. If these mice are assumed to have a total plasma volume of 4 ml, then only about 4% of the injected γ-GluTyr remained in the plasma at 60 min post-injection.

[14] = Stability of γ-GluTyr in a TPN amino acid solution; type: physicochemical; conditions: equal volumes 1.8 mM γ-GluTyr and Aminosyn-PF 10%, pH 5.5, ultrafiltered, room temperature, nine-month period, HPLC
Method: B. In a TPN amino acid solution: Equal volumes of 1.8 mM γ-GluTyr and Aminosyn-PF 10% (Abbott Laboratories) were mixed and the pH was adjusted to 5.5. The mixture thus contained similar concentrations of the peptide and of several amino acids, including phenylalanine and histidine. A sample was taken for analysis, and the remainder of the solution was sterilized by ultrafiltration and stored at room temperature (typical storage conditions for TPN amino acid solutions). Samples for analysis were also taken at intervals over a nine-month period. All samples were analyzed by HPLC as described above.

[15] = target: T2, γ-GTase (Mus musculus, UniProt Q60928); experiment: Effects of inhibiting γ-GTase with acivicin in mice injected with γ-GluTyr; type: in vivo; conditions: for Tyr (plasma) / Phe (plasma) / γ-GluTyr (plasma): 2.8 μmol γ-GluTyr i.v., 10 min postinjection; for γ-GluTyr excreted: lost in the urine at 60 min postinjection
T2 construct: from tissue; host or cells: live mice (whole animal; kidney named as a site of high activity)
T2 sequence (Q60928 1-379 limits assumed): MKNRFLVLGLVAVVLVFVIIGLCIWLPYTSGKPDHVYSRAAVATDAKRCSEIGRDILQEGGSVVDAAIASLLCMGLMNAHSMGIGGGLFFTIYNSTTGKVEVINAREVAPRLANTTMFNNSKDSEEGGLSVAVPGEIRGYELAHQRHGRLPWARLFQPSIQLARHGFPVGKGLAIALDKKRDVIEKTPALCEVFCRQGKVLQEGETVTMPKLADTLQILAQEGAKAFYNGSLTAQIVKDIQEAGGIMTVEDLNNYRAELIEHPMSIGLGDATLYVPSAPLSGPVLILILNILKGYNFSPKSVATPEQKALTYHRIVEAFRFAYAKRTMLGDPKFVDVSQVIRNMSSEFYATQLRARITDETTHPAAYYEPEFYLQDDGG
T2 sequence (Q60928 380-568 limits assumed): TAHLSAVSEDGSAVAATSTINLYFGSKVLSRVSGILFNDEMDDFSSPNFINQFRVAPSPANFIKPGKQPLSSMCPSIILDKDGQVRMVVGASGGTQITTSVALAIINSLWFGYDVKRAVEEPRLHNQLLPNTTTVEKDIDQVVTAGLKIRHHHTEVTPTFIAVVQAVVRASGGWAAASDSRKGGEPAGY
Method: To test the role of γ-GTase in degradation of γ-GluTyr in vivo an additional experiment was conducted. […] Control mice received saline rather than acivicin prior to intravenous injection of 2.8 μmol of γ-GluTyr. In test mice, an intraperitoneal injection of acivicin was made 90 min prior to the injection of 2.8 μmol γ-GluTyr. Plasma was sampled after 10 min and 60 min, and urine was collected after 60 min.
The kidney is generally unable to prevent the loss of intact peptides in the urine. Instead, peptides are hydrolyzed to free amino acids, which can then be salvaged by absorption into the bloodstream. […] When γ-GTase is inhibited by acivicin, unhydrolyzed peptide should be lost in the urine. The data in Table 5 are consistent with a role for γ-GTase in the hydrolysis of γ-GluTyr to prevent its excretion in the urine. When this enzyme is inhibited by acivicin, the amount of unhydrolyzed peptide which appears in the urine in 60 min increases markedly over peptide found in the urine of control mice.

[16] = mice, 20 μL 140 mM γ-GluTyr, 10 min postinjection

SMILES: N[C@@H](CCC(=O)N[C@@H](CSSC[C@H](NC(=O)CC[C@H](N)C(=O)O)C(=O)O)C(=O)O)C(=O)O [(γ-GluCys)2, N,N'-bis(γ-glutamyl)cystine]
- transport into cells [1]: are transported

SMILES: C[C@H](N)C(=O)N[C@@H](CCC(N)=O)C(=O)O [AlaGln, alanylglutamine] (H-Ala-Gln-OH)
- stability in aqueous solution [2]: unstable during prolonged storage in aqueous solution

SMILES: C[C@H](N)C(=O)N[C@@H](Cc1ccc(O)cc1)C(=O)O [AlaTyr, L-alanyl-L-tyrosine] (H-Ala-Tyr-OH)
- plasma tyrosine levels ([3]; 0.5 mmol/kg/day): unchanged
- plasma tyrosine levels ([3]; 2 mmol/kg/day): increased two-fold
- stability in aqueous solution [2]: unstable in aqueous solution

SMILES: Cl.N[C@@H](CS)C(=O)O [Cysteine-HCl, Cysteine-hydrochloride]
- plasma ratio of cysteine to methionine (Cys/Met) ([4]; infants on TPN supplemented with L-cysteine-HCL): 0.6
- adverse effect in TPN ([4]; some treated low-birth-weight infants): implicated in the production of acidosis

SMILES: N[C@@H](CSSC[C@H](N)C(=O)O)C(=O)O [Cystine]
- solubility in water [5]: 10 µg/mL (≈ 41.6 µM)

SMILES: N[C@@H](CCC(=O)N[C@@H](CS)C(=O)NCC(=O)O)C(=O)O [GSH, gamma-glutamyl-cysteinylglycine, reference compound]
- transport into cells [1]: does not appear to be transported into cells

SMILES: NCC(=O)N[C@@H](CCC(N)=O)C(=O)O [GlyGln, glycylglutamine] (H-Gly-Gln-OH)
- stability in aqueous solution [2]: unstable during prolonged storage in aqueous solution

SMILES: NCC(=O)N[C@@H](Cc1ccc(O)cc1)C(=O)O [GlyTyr, L-glycyl-L-tyrosine] (H-Gly-Tyr-OH)
- stability in aqueous solution [2]: unstable during storage in aqueous solution
- rise of plasma tyrosine levels compared with AlaTyr [6]: did not increase as rapidly

SMILES: CC(=O)N[C@@H](CSSC[C@H](NC(C)=O)C(=O)O)C(=O)O [N,N'-bis-acetylcystine]
- urinary losses [7]: large urinary losses

SMILES: CC(=O)N[C@@H](CS)C(=O)O [NAcCys, N-acetylcysteine]
- NAcCys levels (plasma) ([8]; four hours after administration (from 2)): 488 µmol/L
- plasma levels of cysteine ([8]; four hours after administration of 5 g cysteine in a 200 mg/ml solution as NAcCys (basal 207)): 134 µM
- administered NAcCys excreted in the urine ([8]; within 4 h): 11%

SMILES: NC(CCC(=O)NC(CSSCC(N)C(=O)O)C(=O)O)C(=O)O [γ-Glu(Cys)2, γ-L-glutamyl-L-cystine]
- transport into cells [1]: are transported

- Glutamine Concentration (plasma), Mean + Standard Error ([9]; 10 min): 699 ± 24 µM
- Glutamine Concentration (plasma), Mean + Standard Error ([9]; 60 min): 498 ± 64 µM
- mice with γ-GluGln detected in the plasma ([9]; 29 μmoles γ-GluGln via external jugular vein, 10 min): three of six
- appearance of γ-GluGln in the urine ([9]; mice not pretreated with acivicin): did not appear in the urine
- stability of γ-GluGln under typical storage conditions [10]: remained stable
SMILES: NC(=O)CC[C@H](NC(=O)CC[C@H](N)C(=O)O)C(=O)O [γ-GluGln, gamma-L-glutamyl-L-glutamine]
- Glutamine Concentration (plasma), individual mice ([9]; 10 min): 675 µM and 762 µM and 614 µM and 693 µM and 681 µM and 770 µM
- Glutamine Concentration (plasma), individual mice ([9]; 60 min): 565 µM and 586 µM and 457 µM and 198 µM and 555 µM and 629 µM

- clearance of γ-GluTyr from plasma ([11]; mice 30-40 g, 20 μl of 140 mM (2.8 μmol) external jugular vein, 10 min to 60 min post-injection): 2.2 to 2.6 µM/min
- Plasma Phe [11, 16]: 89 ± 8 µM
- Plasma Tyr [11, 16]: 126 ± 14 µM
- increase of plasma concentration of tyrosine ([11]; mice, 40 μl of 140 mM γ-GluTyr, between 5 and 10 min post-injection): 32%
- fall of plasma concentration of tyrosine ([11]; mice, 40 μl of 140 mM γ-GluTyr, between 10 and 60 min post-injection): 32%
- clearance rate of γ-GluTyr from plasma ([11]; mice, 40 μl of 140 mM, external jugular vein): 6.8 µM/min
- release of tyrosine from γ-GluTyr by the enzyme [12]: released tyrosine
- peptide hydrolyzed and available as free tyrosine and glutamic acid ([13]; 60 min post-injection): at least 96%
- injected γ-GluTyr remaining in the plasma ([13]; 60 min post-injection, assumed total plasma volume of 4 ml): about 4%
- plasma γ-GluTyr ([13]; anesthetized mice, 2.8 μmol i.v., 60 min): 12 to 25 µM
- injected γ-GluTyr excreted in the urine ([13]; anesthetized mice, 2.8 μmol i.v., at the end of 60 min): ≤ 0.13%
- partitioning into red blood cells ([13]; previous studies): not partitioned into red blood cells
- levels of γ-GluTyr and tyrosine during storage [14]: unchanged
- Tyr (plasma) ([15]; acivicin + (2 mg/30 g mouse i.p. 90 min before)): 96 ± 1 µM
- Phe (plasma) ([15]; acivicin +): 96 ± 6 µM
- γ-GluTyr (plasma) ([15]; acivicin +): 247 ± 17 µM
- γ-GluTyr excreted ([15]; acivicin +): 16-48 % of total
- Tyr (plasma) ([15]; acivicin - (saline)): 126 ± 14 µM
- Phe (plasma) ([15]; acivicin -): 89 ± 8 µM
- γ-GluTyr (plasma) ([15]; acivicin -): 112 ± 15 µM
- γ-GluTyr excreted ([15]; acivicin -): 0.05-0.19 % of total
SMILES: N[C@@H](CCC(=O)N[C@@H](Cc1ccc(O)cc1)C(=O)O)C(=O)O [γ-GluTyr, gamma-L-glutamyl-L-tyrosine]
